How the values were obtained:
[1] = test system: host DNA synthesis; conditions: administration of AZT; cited from earlier work
[2] = test system: HIV; assay: Reduction of HIV cytopathic effect, MT2V (MT2 cells, free virus); assay type: cell-based; conditions: Human immunodeficiency virus 1, read-out: Activity of Anti-HIV Compounds (EC50), MT2V
Experimental: The compounds of Examples were tested for anti-AIDS activity by subjecting them to standard National Cancer Institute ("NCI") in vitro screening procedures. In carrying out each test, two blanks were run. In the first blank, HIV and a culture of a standard human cell line were incubated together to measure the infectivity of the virus. The viability of the cells was measured after holding for six or seven days. In an "effective" test, most cells were infected before the holding period was complete.
In the second blank, the cell line culture and the compound being tested (but not virus) were incubated together to measure the toxicity of the drug to the cellline. The viability of the cells was measured as a function of concentration of the compound, after holding for seven days. […]
Finally, the protective effects of the test compounds were measured. Each cell culture and test compound were incubated with the virus and the viability of the cells was measured as a function of compound concentration after holding for six or seven days. […] At this point, cell viability increases steadily toward 100% unless the toxic effect of the compound (as measured in the second blank) takes effect. […] The therapeutic index TI50 is calculated as IC50/EC50.
Values of test compound concentrations required for between 20 and 50% reduction of the viral cytopathic effect can also be determined. […]

[3] = parameters: species or system mice; conditions: mouse, in vivo, iv, 10 mg/kg/day
Source text: Initial studies on the toxicity of the compound of Example 1 were made on mice.
for 5 days Per Day Test Toxicity

[4] = test system: various fungi; conditions: variety of crops; cited from earlier work

SMILES: Cc1cn([C@H]2C[C@H](N=[N+]=[N-])[C@@H](CO)O2)c(=O)[nH]c1=O [AZT, Azidothymidine]
- side effects [1]: severe side effects, e.g., anemia, granulocytopenia, and thrombocytopenia

SMILES: CC1=C(C(=O)Nc2ccc(Cl)c(C(=O)OC(C)C)c2)SCCO1 [Compound 1, 1-Methylethyl 2-chloro-5-[[(5,6-dihydro-2-methyl-1,4-oxathiin-3-yl)carbonyl]amino]benzoate]
- EC50 [2]: 2.6 µM
- Result, Toxicity [3]: No visible sign

SMILES: CC1=C(C(=O)Nc2ccccc2)SCCO1 [carboxin, 5,6-dihydro-2-methyl-N-phenyl-1,4-oxathiin-3-carboxamide]
- control of fungi by seed treatment [4]: providing control by seed treatment of various fungi

Source: patent publication US5268389A, “Thiocarboxylate ester compounds compositions containing the same” (priority 1990, dated 1993)
